The source of these data is paper PMC9605737, “Identification of 6ω-cyclohexyl-2-(phenylamino carbonylmethylthio)pyrimidin-4(3H)-ones targeting the ZIKV NS5 RNA dependent RNA polymerase” (Frontiers in Chemistry, 2022).

Data set [1] is described as follows: MTT cytotoxicity assay in Huh7 cells. The class given is cell-based. Particulars: human. On the procedure:
(§1) MTT assay was used to detect the toxicity of the compound. Cells were seeded in 96-well plates and cultured overnight. Compounds with different concentrations were added and incubated for 96 h. Then, 20 μl of 5 mg/ml MTT (Sigma-Aldrich, United States) solution was added to each well and kept at 37°C for 4 h. Subsequently, 100 μl of 12% SDS-50% DMF (Sigma-Aldrich, United States) solution was added and incubated overnight at 37°C. After the crystalline formamidine was completely dissolved, the optical density (OD) value was measured using a microplate reader (BioTek, United States) with a wavelength of 570 nm and a reference wavelength of 630 nm.
(§2) The 50% effective concentration (EC50) and 50% cytotoxic concentration (CC50) of the compound were calculated according to the Reed and Muench method, inhibition rate of ZIKV RNA yield- [(1-drug treatment/positive control) × 100]. The data and graphs were processed using GraphPad Prism8 software, expressed as mean ± standard deviation (Mean ± SD), comparison between groups using ANOVA, p < 0.05 was considered statistically significant.
(In general: Tetrazolium dyes change colour on reduction, which living cells bring about.)

The subject of data set [2] is ZIKV RNA. Kind of data set: qRT-PCR viral load in supernatant of ZIKV-infected Vero cells. Particulars: Zika virus, read-out: EC50, inhibition of ZIKV RNA replication. The class given is cell-based. From the text: In order to re-verify the inhibitory effect of 4w on ZIKV at the molecular level, we used ZIKV to infect cell lines of different origins (A549, Vero, Huh7 cells) and then treated with 4w in a concentration gradient. The change of viral load in the supernatant of cells after treatment was detected by qRT-PCR method.
Cells were infected with ZIKV SZ-WIV01 and then treated with 4w. The viral load in the supernatant was detected by Quantitative real-time polymerase chain reaction (qRT-PCR) at in different time periods after infection. Then the RNA from culture supernatant was extracted using the EasyPure ® Viral DNA/RNA Kit (TransGen Biotech, China) following the manufacturer’s instructions. Intracellular RNA extraction was according to trizol method. A one-step qRT-PCR kit RNA-direct™ Realtime PCR Master Mix (TOYOBO, Japan) and TaqMan probe were used to quantify the viral RNA produced. The primers (NS5 ZIKV 1086F: 5′-CCGCTGCCCAACACAAG-3′ and NS5 ZIKV 1086R: 3′-[…] C-5′) and probe (5′-FAM-[…]-TAMRA -3′) were used for amplification of the ZIKV NS5 region. A standard curve of the serial dilutions was used to quantify the viral RNA yield.
The 50% effective concentration (EC50) and 50% cytotoxic concentration (CC50) of the compound were calculated according to the Reed and Muench method, inhibition rate of ZIKV RNA yield- [(1-drug treatment/positive control) × 100]. […]
(Real-time PCR tracks product formation cycle by cycle.)

Data set [3] relates to ZIKV E protein. Kind of data set: Immunofluorescence assay of ZIKV E protein in infected Vero cells. The class given is cell-based, Zika virus. The note with it: 25 μM, 72 h. From the text: (§3) ZIKV E protein is one of the most important structural proteins of ZIKV, which plays an important role in the correct assembly of the virus and evasion of the host’s innate immunity ([Jaimipuk et al., 2022]). We have verified that 4w has a significant inhibitory effect on ZIKV-infected cell lines from different sources at the molecular level, but it is unknown whether it has the same antiviral effect at the protein level. Therefore, in order to explore the inhibitory effect of 4w on ZIKV protein level, we added serially diluted 4w to ZIKV-infected Vero cells for 48 h, collected the total protein for WB experiments, and then detected the effect of 4w on ZIKV E and NS5 protein. At the same time, the inhibitory effect of 4w on ZIKV E protein was verified again by immunofluorescence experiment.
Vero cells were seeded at 2 × 10^5 cells/ml in a 24-well plate with cell slides, and 500 μl/well was cultured overnight in a 37°C, 5% CO2 incubator. ZIKV (MOI = 1) was added to infect at 37°C for 2 h, and then discarded the virus. The cells were washed twice with PBS and then added to 500 μl of 4w diluted in concentration gradients. At the same time, virus-only as a positive control and a medium-only as negative control were set. […] Microscopic examinations were performed on a Leica DMI4000B Microsystem (Wetzlar, Germany), and an image was recorded using the system.

The nature of data set [4]: MTT cytotoxicity assay in A549 cells. Particulars: human. The class given is cell-based. The method, then:
as §1, §2

The conditions of data set [5]: Figure 3; ref Shen (2015); cited from earlier work.
The test system of data set [6] is ZIKV NS5 protein. Kind of data set: Western blot of ZIKV NS5 protein in infected Vero cells. The class given is cell-based. Particulars: 12.5 μM, 48 h.
Source text: as §3
Vero cells were infected with ZIKV (MOI = 1) at 37°C for 2 h. Next, the different amounts of 4w were added to continue culturing for 48 h to extract the total protein in the cells. The total protein was separated in sodium dodecyl sulfate polyacrylamide gel electrophoresis (SDS-PAGE). […] The antibody signal was recorded and quantified using the Tanon-5200 Multi Imaging System.
For orientation: A western blot detects proteins with antibodies after separation by electrophoresis.

On to `CCc1c(C2CCCCC2)nc(SCC(=O)Nc2cc(F)cc(F)c2)[nH]c1=O` [Compound 4w, 2-{[4-cyclohexyl-5-ethyl-6-oxo-1,6-dihydropyrimidin-2-yl]thio}-N-(3,5-difluorophenyl)acetamide], for which the CC50 at 96 h in data set [1] and in data set [4] was greater than 200 µM in each case. Further, the EC50 in data set [2] stood at 6.87 ± 1.21 µM. In addition, the “inhibition of ZIKV E protein expression (immunofluorescence)” value in data set [3] is “completely inhibited”. For the same compound, the CC50 in data set [5] was greater than 10 µM. Also, the “inhibition of ZIKV NS5 protein expression (WB)” value in data set [6] is “significantly inhibit”.

Broadly, the EC50 is the concentration at which the effect is half-maximal.
